# PubChem BioAssay (NCI)
#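 48-hour exposure; five concentrations; linearly interpolated endpoints. GI50 = concentration required for 50% inhibition of growth. TGI marks complete inhibition of growth.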
# Tests used:
# Assay in all cases: inhibition of tumour cell growth, NCI panel, 48 h
# SF-295 CNS = tested on: SF-295 CNS
# HCT-116 colon = tested on: HCT-116 colon
# MOLT-4 leukemia = tested on: MOLT-4 leukemia
# OVCAR-3 ovarian = tested on: OVCAR-3 ovarian
# SF-539 CNS = tested on: SF-539 CNS
# HT29 colon = tested on: HT29 colon
# TK-10 renal = tested on: TK-10 renal
# NCI-H23 lung = tested on: NCI-H23 lung
# RPMI-8226 leukemia = tested on: RPMI-8226 leukemia
# CCRF-CEM leukemia = tested on: CCRF-CEM leukemia
Structure (SMILES),TGI (SF-295 CNS),TGI (HCT-116 colon),TGI (MOLT-4 leukemia),TGI (OVCAR-3 ovarian),TGI (SF-539 CNS),TGI (HT29 colon),TGI (TK-10 renal),TGI (NCI-H23 lung),GI50 (SF-295 CNS),GI50 (RPMI-8226 leukemia),TGI (RPMI-8226 leukemia),GI50 (HCT-116 colon),GI50 (MOLT-4 leukemia),GI50 (OVCAR-3 ovarian),GI50 (SF-539 CNS),GI50 (HT29 colon),GI50 (TK-10 renal),GI50 (NCI-H23 lung),GI50 (CCRF-CEM leukemia),TGI (CCRF-CEM leukemia)
COc1ccc(S(=O)(=O)Nc2ccc(-c3csc(N4C(=O)/C(=C/c5cccs5)N=C4c4ccccc4)n3)cc2)cc1Cl,> 100 µM,> 100 µM,> 100 µM,> 100 µM,> 100 µM,> 100 µM,> 100 µM,59.6 µM,,,,,,,,,,,,
CCCCCCCCCC[N+](C)(C)C,5.81 µM,10.5 µM,3.43 µM,5.4 µM,5.9 µM,2.17 µM,3.27 µM,6.34 µM,1.97 µM,0.604 µM,2.9 µM,2.34 µM,1.59 µM,1.68 µM,2.17 µM,0.505 µM,1.42 µM,2 µM,0.739 µM,2.32 µM
COc1ccc(OCC(C)(C)O)cc1,> 100 µM,> 100 µM,> 100 µM,> 100 µM,> 100 µM,> 100 µM,,> 100 µM,,,> 100 µM,,,,,,,,,> 100 µM
COc1ccc2c(c1)c(=O)c1c(NCCCN(C)C)ccc3ncn2c31,15.2 µM,13 µM,13.9 µM,26.7 µM,17 µM,8.21 µM,20.1 µM,21 µM,,,> 27.7 µM,,,,,,,,,45.3 µM
CCOC(=O)/C=C/c1c[nH]c(=O)[nH]c1=O,> 75 µM,> 75 µM,> 48.7 µM,> 75 µM,> 75 µM,> 75 µM,,> 75 µM,,,> 57 µM,,,,,,,,,> 75 µM
COC1C(OC(C)=O)CC(=O)OC(C)C/C=C/C=C\C(O)C(C)CC(CC=O)C1OC1OC(C)C(OC2CC(C)(O)C(OC(=O)CC(C)C)C(C)O2)C(N(C)C)C1O (stereo not given),> 100 µM,> 100 µM,,> 100 µM,> 100 µM,> 100 µM,> 100 µM,> 100 µM,,,> 100 µM,,,,,,,,,> 100 µM
c1ccc(N2N=C3N(c4ccccc4)C2N3c2ccccc2)cc1,> 100 µM,> 100 µM,62.5 µM,> 100 µM,74.9 µM,> 100 µM,> 100 µM,> 100 µM,,,48.7 µM,,,,,,,,,71.8 µM
CCOC(=O)C1=C(C)N(C2OC(COC(C)=O)C(OC(C)=O)C(OC(C)=O)C2OC(C)=O)C(=O)NC1c1ccccc1 (stereo not given),> 100 µM,> 100 µM,> 100 µM,> 100 µM,> 100 µM,> 100 µM,,> 100 µM,,,> 100 µM,,,,,,,,,> 100 µM
COc1c2occc2cc2ccc(=O)oc12,> 100 µM,> 100 µM,> 100 µM,> 100 µM,> 100 µM,> 100 µM,> 100 µM,> 100 µM,,,> 100 µM,,,,,> 100 µM,,,,> 100 µM
COc1ccc2c(c1)C=C(C(C)(C)C)NS2(=O)=O,> 100 µM,> 100 µM,> 100 µM,> 100 µM,> 100 µM,> 100 µM,> 100 µM,> 100 µM,,,,,,,,,,,,> 100 µM
C[C@]12CC/C(=N\O)C=C1CC[C@@H]1[C@@H]2CC[C@]2(C)C(=N/O)/C(=C/c3ccncc3)C[C@@H]12,> 100 µM,47.4 µM,> 100 µM,72.3 µM,> 100 µM,42.1 µM,> 100 µM,> 100 µM,,,42.7 µM,,,,,,,,,
CC1OC(OC2C[C@](O)(C(=O)CBr)Cc3c(O)c4c(c(O)c32)C(=O)c2ccccc2C4=O)C(F)C(O)C1O (stereo not given in full),27.5 µM,> 68 µM,,42.9 µM,30.4 µM,> 56.1 µM,> 87.4 µM,36.2 µM,,,17.7 µM,,,,,,,,,3.04 µM
CC(=O)OCc1nnn2c1CCC2,> 100 µM,> 100 µM,> 100 µM,> 100 µM,> 100 µM,> 100 µM,> 100 µM,,,,,,,,,,,,,> 100 µM
CC(c1ccccc1)C(O)S(=O)(=O)O (stereo not given),> 100 µM,> 100 µM,> 100 µM,> 100 µM,> 100 µM,> 100 µM,> 100 µM,> 100 µM,,,> 100 µM,,,,,,,,,> 100 µM
CCCCn1c(C)c2c(c1C)C(=O)N(CCN1CCN(c3ccccc3Cl)CC1)C2=O,> 100 µM,34.3 µM,52.2 µM,> 100 µM,38 µM,31 µM,> 100 µM,85.4 µM,,,55.1 µM,,,,,,,,,75.7 µM
